{"source": "ChEMBL document CHEMBL1137236", "about": "“Synthesis and neuroprotective effects of serofendic acid analogues” (2006)", "data": [{"tested_on": "Cortical neurone", "assay": "Protective effect against L-glutamate-induced neurotoxicity in rat primary cortical neurons at 1 uM by trypan blue exclusion method", "format": "functional", "units": {"Activity": "%"}, "values": [{"smiles": "C[C@]12N[C@H](Cc3ccccc31)c1ccccc12.O=C(O)/C=C\\C(=O)O", "note": "[DIZOCILPINE MALEATE]", "Activity": 80.7}]}, {"tested_on": "Cortical neurone", "assay": "Protective effect against L-glutamate-induced neurotoxicity in rat primary cortical neurons at 10 uM by trypan blue exclusion method", "format": "functional", "units": {"Activity": "%"}, "values": [{"smiles": "C[S+]([O-])C[C@H]1[C@H]2CC[C@@]3(CC[C@@H]4[C@](C)(CO)CCC[C@@]4(C)[C@@H]3C2)[C@@H]1O", "note": "(stereo partly specified)", "Activity": 7.79}, {"smiles": "C[S+]([O-])C[C@@H]1[C@H]2CC[C@@]3(CC[C@H]4[C@@](C)(CCC[C@@]4(C)C(=O)O)[C@@H]3C2)[C@H]1O", "note": "(stereo partly specified)", "Activity": 33.7}, {"smiles": "C[S+]([O-])CC1=C[C@]23CC[C@H]1C[C@H]2[C@]1(C)CCC[C@@](C)(C(=O)O)[C@H]1CC3", "note": "(stereo partly specified)", "Activity": 15.6}, {"smiles": "C[S+]([O-])CC1C[C@]23CC[C@H]1C[C@H]2[C@]1(C)CCC[C@@](C)(C(=O)O)[C@H]1CC3", "note": "(stereo partly specified)", "Activity": 18.1}, {"smiles": "C[S+]([O-])C[C@@H]1C(=O)[C@]23CC[C@H]1C[C@H]2[C@]1(C)CCC[C@@](C)(C(=O)O)[C@H]1CC3", "note": "(stereo partly specified)", "Activity": 41.5}, {"smiles": "CSC[C@H]1[C@H]2CC[C@@]3(CC[C@H]4[C@@](C)(CCC[C@@]4(C)C(=O)O)[C@@H]3C2)[C@@H]1O", "Activity": 39.8}, {"smiles": "C[S+]([O-])C[C@H]1[C@H]2CC[C@@]3(CC[C@@H]4C(C)(C)CCC[C@@]4(C)[C@@H]3C2)[C@@H]1O", "note": "(stereo partly specified)", "Activity": 13.1}, {"smiles": "C[C@@]12CCC[C@@](C)(C(=O)O)[C@H]1CC[C@@]13CC[C@@H](C[C@@H]21)[C@H](CS(C)(=O)=O)[C@H]3O", "Activity": 20}, {"smiles": "C[S+]([O-])C[C@H]1[C@H]2CC[C@@]3(CC[C@H]4[C@@](C)(CCC[C@@]4(C)C(=O)O)[C@@H]3C2)[C@@H]1O", "note": "(stereo partly specified) [SEROFENDIC ACID]", "Activity": 45.3}, {"smiles": "COC(=O)[C@]1(C)CCC[C@@]2(C)[C@@H]3C[C@@H]4CC[C@@]3(CC[C@@H]21)[C@H](O)[C@H]4C[S+](C)[O-]", "note": "(stereo partly specified)", "Activity": 20.5}]}]}
